Biological target: T1, Bile acid receptor (Homo sapiens) (UniProt Q96RI1)
T1 sequence (whole entry): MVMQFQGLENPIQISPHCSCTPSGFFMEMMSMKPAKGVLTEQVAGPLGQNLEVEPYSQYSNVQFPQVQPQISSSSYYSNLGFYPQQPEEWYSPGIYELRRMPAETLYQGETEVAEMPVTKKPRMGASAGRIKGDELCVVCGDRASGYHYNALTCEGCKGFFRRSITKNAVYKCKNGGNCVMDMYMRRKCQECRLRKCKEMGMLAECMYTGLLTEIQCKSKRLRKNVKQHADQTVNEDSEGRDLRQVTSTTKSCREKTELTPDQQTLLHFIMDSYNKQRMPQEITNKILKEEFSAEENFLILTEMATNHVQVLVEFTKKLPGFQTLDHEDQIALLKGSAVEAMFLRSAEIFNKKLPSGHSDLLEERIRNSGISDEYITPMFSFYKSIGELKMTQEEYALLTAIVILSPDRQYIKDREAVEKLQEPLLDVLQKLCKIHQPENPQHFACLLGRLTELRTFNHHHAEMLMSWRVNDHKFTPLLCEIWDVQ

CC(C)c1onc(-c2c(Cl)cccc2Cl)c1COc1ccc(/C=C/c2cccc(C(=O)O)c2)c(Cl)c1
RE: 1.4
